The text below walks through data of patent US20100113570A1, “PREVENTION AND TREATMENT OF POST-OPERATIVE COGNITIVE DYSFUNCTION” (The General Hospital Corporation, priority 2008, published 2010).

For data set [1], the system named is H4-APP cells. Put plainly: Caspase-3 activation by Western blot (ratio of caspase-3 fragment to FL-caspase-3) in H4-APP cells. It is filed as cell-based, human. The procedure:
(§1) Cell lines. We used naive H4 human neuroglioma cells stably transfected to express full-length APP (FL-APP; H4-APP cells) in the studies. The cells were cultured in DMEM (high glucose) containing 9% heat inactivated fetal calf serum, 100 U/ml penicillin, 100 μg/ml streptomycin, 2 mM L-glutamine, and 200 μg/ml G418.
(§2) Cell treatment. Twenty-one percent O2, 5% CO2, and 2% isoflurane were delivered from an anesthesia machine to a sealed plastic box in a 37° Celsius incubator containing six-well plates seeded with one million cells in 1.5 ml of cell culture media as described in our previous studies (Xie et al., 2006a,b, 2007). Date infrared gas analyzer (Puritan-Bennett, Tewksbury, Mass.) was used to continuously monitor the delivered CO2, O2, and isoflurane concentrations. We treated the cells with 2% isoflurane for 6 h, during which time the cells were incubated in serum-free media. In the interaction studies, the cells were treated with memantine (4 μM) 1 h before the treatment of 2% isoflurane. Low-calcium condition was created by using a calcium-free cell culture media (Invitrogen, Carlsbad, Calif.) and by adding EDTA (10 mM; Sigma-Aldrich, St. Louis, Mo.), a chelating compound (Rekasi et al., 2005), or BAPTA (10 μM; Sigma-Aldrich), an intracellular calcium chelator, to the media. […] These siRNAs and control siRNAs (3′[…]) were obtained from Dharmacon (Lafayette, Colo.). siRNAs were transfected into cells by using electroporation (Amaxa Biosystems, Gaithersburg, Md.) as described by Xie et al. (2005b). Briefly, we mixed 1 million cells, 100 μl of AMAXA electroporation transfection solution, and 10 μl of 20 μM siRNA together and then used the C-9 program in an AMAXA electroporation device for cell transfection. The transfected cells were then placed in one of the six-well plates containing 1.5 ml of cell culture media. The pretreated cells were then exposed to the isoflurane treatment.
Cell lysis and protein amount quantification. Cell pellets were detergent-extracted on ice using immunoprecipitation buffer (10 mM Tris-HCl, pH 7.4, 150 mM NaCl, 2 mM EDTA, 0.5% Nonidet P-40) plus protease inhibitors (1 μg/ml aprotinin, 1 μg/ml leupeptin, 1 μg/ml pepstatin A). The lysates were collected, centrifuged at 12,000 rpm for 10 min, and quantified for total proteins by a BCA protein assay kit (Pierce Technology Corporation, Iselin, N.J.).
Western blot analysis. The harvested cells and brain tissues were subjected to Western blots as described by Xie et al. (2005a). A caspase-3 antibody (1:1000 dilution; Cell Signaling Technology, Beverly, Mass.) was used to recognize caspase-3 fragment (17-20 kDa) resulting from cleavage at asparate position 175 and FL-caspase-3 (35-40 kDa). Caspase-3 cleavage (activation) is based on the ratio of caspase-3 fragment to FL caspase-3. Antibody anti-b-actin was used to visualize b-actin (42 kDa). Antibodies for IP3 receptor (1:1000; Millipore Bioscience Research Reagents, Temecula, Calif.), NR1 (1:1000; PhosphoSolutions, Aurora, Colo.), and SERCA1 (1:1000; Abcam, Cambridge, Mass.) were used to recognize IP3 receptor (250 kDa), NR1 (120 kDa), and SERCA1 (110 kDa). The quantitation of Western blots was performed as described by Xie et al. (2005a). Briefly, the intensity of signals was analyzed by using a Bio-Rad (Hercules, Calif.) image program (Quantity One) and an NIH Image version 1.37v. We quantified the Western blots using two steps.

A short description of another data set: MTT cell viability assay. It is filed as cell-based, human. Conditions: human, MTT. How it is done:
as §1, §2
(In general: Formazan colour is commonly taken as a measure of viable cells.)

Data set [2] deals with H4-APP cells. Put plainly: Cell apoptosis assay (cell death detection ELISA). The data set is classed as cell-based, human. The procedure:
as §1, §2
Background: An ELISA detects its analyte on a solid surface through an enzyme-linked reagent.

Data set [3] has as its system H4-APP cells. Put plainly: Cytosolic calcium measurement (Fura-2 ratio). The data set is classed as cell-based, human. The procedure: Cytosolic calcium measurement. Cytosolic calcium levels were determined as described by Wei et al. (2008). Specifically, H4-APP cells were loaded with Fura-2 (Invitrogen), perfused with Tyrode buffer, and [Ca2+]i transients were recorded as changes in Fura-2 ratio (340/380 nm) using a spectrofluoroscope system (Ionoptix, Milton, Mass.).

In a further data set the test system is caspase-3. Put plainly: Caspase-3 activation in brain tissue of naive mice (Western blot). The data set is classed as in vivo. The procedure: Mice treatment. The animal protocol was approved by the Massachusetts General Hospital Standing Committee on Animals Sixteen female C57BL/6 mice (5-6 months of age) (The Jackson Laboratory, Bar Harbor, Me.) were randomly assigned to an anesthesia or control group. […] This isoflurane treatment allows the mice to have sufficient exposure to isoflurane while avoiding excessive accumulation of CO2. The control mice (n=8) received 100% oxygen at an identical flow rate for 6 h and 20 min in an identical chamber. The mice breathed spontaneously, and anesthetic and oxygen concentrations were measured continuously (Datex, Puritan-Bennett; Ohmeda PPD, Madison, Wis.). Rectal temperature was measured intermittently, and the temperature of the anesthetizing chamber was controlled to maintain rectal temperature of the animals at 37±0.5° C. Mean arterial blood pressure was measured noninvasive using a tail cuff (CODA2 system; Kent Scientific Corporation, Torrington, Conn.) in the anesthetized mice. […] Mice were killed by decapitation at the end of the experiments, the brain was removed rapidly, and the prefrontal cortex was dissected out and frozen in liquid nitrogen for subsequent processing for the determination of caspase-3activation. […] Brain tissue lysis and protein amount quantification. […] The lysates were collected, centrifuged at 12,000 rpm for 10 min, and quantified for total proteins by a BCA protein assay kit (Pierce Technology Corporation). Western blot analysis. The harvested cells and brain tissues were subjected to Western blots as described by Xie et al. (2005a). […] Caspase-3 cleavage (activation) is based on the ratio of caspase-3 fragment to FL caspase-3. Antibody anti-b-actin was used to visualize b-actin (42 kDa). […] The quantitation of Western blots was performed as described by Xie et al. (2005a). Briefly, the intensity of signals was analyzed by using a Bio-Rad (Hercules, Calif.) image program (Quantity One) and an NIH Image version 1.37v. We quantified the Western blots using two steps. […] Data were expressed as mean±SD. […]

Data set [4] is described as follows: Blood pressure and blood gas of anesthetized mice. The data set is classed as in vivo. Conditions: 1.4% isoflurane for 2 h; data not shown. The procedure:
Mice treatment. The animal protocol was approved by the Massachusetts General Hospital Standing Committee on Animals Sixteen female C57BL/6 mice (5-6 months of age) (The Jackson Laboratory, Bar Harbor, Me.) were randomly assigned to an anesthesia or control group. […] This isoflurane treatment allows the mice to have sufficient exposure to isoflurane while avoiding excessive accumulation of CO2. The control mice (n=8) received 100% oxygen at an identical flow rate for 6 h and 20 min in an identical chamber. The mice breathed spontaneously, and anesthetic and oxygen concentrations were measured continuously (Datex, Puritan-Bennett; Ohmeda PPD, Madison, Wis.). Rectal temperature was measured intermittently, and the temperature of the anesthetizing chamber was controlled to maintain rectal temperature of the animals at 37±0.5° C. Mean arterial blood pressure was measured noninvasive using a tail cuff (CODA2 system; Kent Scientific Corporation, Torrington, Conn.) in the anesthetized mice. […] Mice were killed by decapitation at the end of the experiments, the brain was removed rapidly, and the prefrontal cortex was dissected out and frozen in liquid nitrogen for subsequent processing for the determination of caspase-3activation.

In data set [5] the test system is H4-APP cells. Put plainly: MTT cell viability assay. The data set is classed as cell-based, human. The procedure:
as §1, §2

Setting [6] is: isoflurane plus control siRNA, control = 100%.
Setting [7] is: memantine 4 μM alone vs control conditions.

Usually viability stands for the share of living cells, or the viability signal relative to a control.

`O=C(O)CN(CC(=O)O)c1ccccc1OCCOc1ccccc1N(CC(=O)O)CC(=O)O` [BAPTA, 1,2-bis (o-aminophenoxy)ethane-N,N,N′,N′-tetraacetic acid]: in the data set with H4-APP cells [1] (BAPTA 10 μM plus 2% isoflurane for 6 h, control = 100%), the “caspase-3 activation, BAPTA plus isoflurane” value is given as 154%. The “caspase-3 activation, BAPTA alone” value with H4-APP cells [1] (BAPTA plus control condition vs DMSO plus control condition) is recorded as “does not induce caspase-3 activation”.

For `O=C(O)CN(CCN(CC(=O)O)CC(=O)O)CC(=O)O` [EDTA, ethylenediaminetetraacetic acid], the “reduction in caspase-3 activation compared with isoflurane plus normal calcium” value in the data set on H4-APP cells [1] (isoflurane plus low calcium and EDTA (10 mM), H4-APP cells) was found to be 68%.

With `FC(F)OC(Cl)C(F)(F)F` (centres unmarked) [isoflurane], the “caspase-3 activation compared with control conditions” value in the data set on H4-APP cells [1] (2% isoflurane for 6 h alone, H4-APP cells, control = 100%) was 184%. Besides, the “caspase-3 activation, isoflurane plus DMSO (BAPTA experiment)” value in the data set on H4-APP cells [1] (2% isoflurane for 6 h plus DMSO, control = 100%) worked out at 185%. For the same compound, in the data set with H4-APP cells [1] (2% isoflurane for 6 h plus control siRNA, control = 100%), the “caspase-3 activation, isoflurane plus control siRNA (NR1 experiment)” value was determined as 168%. Also, in the data set on H4-APP cells [1] (setting [6]), the “caspase-3 activation, isoflurane plus control siRNA (IP3 receptor experiment)” value amounted to 292% and the “caspase-3 activation, isoflurane plus control siRNA (SERCA1 experiment)” value is reported as 194%. In addition, in “MTT cell viability assay” (2% isoflurane for 6 h, percent of control, read-out: cell viability, isoflurane alone), the viability at 6 h, 2 % is 74%. In addition, the cytotoxicity at 6 h, 2 % in “MTT cell viability assay” (2% isoflurane for 6 h vs control conditions, read-out: reduction in cell viability) worked out at 26%. Further, the “cell apoptosis compared with control conditions” value with H4-APP cells [2] (2% isoflurane for 6 h alone, control = 100%) is listed as 137%. The “cytosolic calcium levels, isoflurane” value with H4-APP cells [3] (isoflurane 1 mM or 3.5%) is listed as “can elevate cytosolic calcium levels”. Moreover, the “caspase-3 activation in mouse brain compared with control condition” value in the data set with caspase-3 (three sessions of 1.4% isoflurane for 2 h, prefrontal cortex, control = 100%) is given as 177%. Also, in data set [4], the “effect on blood pressure and venous blood gas” value was “did not significantly affect blood pressure and venous blood gas”.

As for `CC12CC3CC(C)(C1)CC(N)(C3)C2` [memantine], the “caspase-3 activation, memantine plus isoflurane” value in the data set with H4-APP cells [1] (memantine 4 μM 1 h before 2% isoflurane for 6 h, H4-APP cells, control = 100%) came to 101%. Moreover, the “caspase-3 activation, memantine alone” value with H4-APP cells [1] (memantine 4 μM alone vs control conditions, H4-APP cells) was “did not induce caspase-3 activation”. Further, the “cell viability, memantine alone” value in the data set on H4-APP cells [5] (setting [7]) is recorded as “had no effects on either cell viability or apoptosis”. The “cell viability, memantine plus isoflurane” value with H4-APP cells [5] (memantine 4 μM plus 2% isoflurane for 6 h, percent of control, MTT) stood at 95%. The “cell apoptosis, memantine alone” value in the data set with H4-APP cells [2] (setting [7]) is reported as “had no effects on either cell viability or apoptosis”. Further, in the data set on H4-APP cells [2] (memantine 4 μM plus 2% isoflurane for 6 h, control = 100%), the “cell apoptosis, memantine plus isoflurane” value was found to be 99%. Also, in the data set with H4-APP cells [3] (pretreated with memantine 4 μM, then isoflurane 1 mM or 3.5%), the “isoflurane-induced elevation in cytosolic calcium levels, memantine pretreatment” value is on record as “isoflurane failed to increase cytosolic calcium levels”. Besides, in the data set on caspase-3 (memantine 20 mg/kg i.p. 1 h before three sessions of 1.4% isoflurane for 2 h, control = 100%), the “caspase-3 activation in mouse brain, memantine plus isoflurane” value is 97%. Besides, the “caspase-3 activation in mouse brain, memantine alone” value in the data set with caspase-3 (memantine 20 mg/kg intraperitoneal alone vs control condition) is recorded as “did not induce caspase-3 activation”.
